{"source": "patent US8067390B2", "about": "“Therapeutic targeting of interleukins using siRNA in neutral liposomes” (The Board of Regents of the University of Texas System, priority 2007, dated 2011)", "key": {"SKOV3ip2.TR": {"tested_on": "SKOV3ip2.TR", "experiment": "IL-8 siRNA therapy in orthotopic murine ovarian cancer model, taxane-resistant SKOV3ip2.TR", "format": "in vivo, mice", "source_text": "(§1) Cell lines and cultures. The derivation and source of the epithelial ovarian cancer cell lines HeyA8 and SKOV3ip1 have been previously described (Halder et al., 2006; Landen et al., 2005). The taxane-resistant cell line, SKOV3ip2.TR (a gift from Dr. Isaiah J. Fidler, M.D. Anderson Cancer Center [MDACC], Houston, Tex.), was derived from the SKOV3ip1 cells following serial passages in media containing paclitaxel. All cell lines were maintained and propagated in RPMI-1640 media supplemented with 15% fetal bovine serum and 0.1% gentamicin sulfate (Gemini Bioproducts, Calabasas, Calif.). SKOV3ip2.TR media also contained 100-150 ng/ml paclitaxel. All experiments were performed at 60-80% confluency and cell lines routinely tested for Mycoplasma. For in vivo experiments, cells were trypsinized, centrifuged at 1000 rpm at 4° C. for 7 minutes, washed twice with HBSS, and resuspended at a concentration of 1.25×10^6 cells/ml (HeyA8) and 5×10^6 cells/ml (SKOV3ip1 and SKOV3ip2.TR).\n(§2) Preparation of liposomal siRNA for in vivo delivery. For all in vivo experiments, siRNA constructs were incorporated into neutral liposomes (DOPC: 1,2-dioleoyl-sn-glycero-3-phosphatidylcholine), lyophilized, and stored at −20° C. (Landen et al., 2005). Prior to in vivo delivery, siRNA-DOPC preparations were resuspended with PBS to appropriate concentrations.\n(§3) IL-8 siRNA therapy in an orthotopic murine ovarian cancer model. Female athymic nude mice were purchased from the National Cancer Institute-Frederick Cancer Research and Development Center (Frederick, Md.) and housed in specific pathogen-free conditions. […]\n(§4) Development and characterization of the orthotopic murine model of advanced ovarian cancer used in these experiments has been previously described (Halder et al., 2006; Landen et al., 2005). […] Mice were monitored daily for signs of adverse effects and sacrificed when moribund. Tumor weights, number of tumor nodules, pattern of disease spread, presence and amount of ascites, and mouse weights were recorded at necropsy. […]"}, "HeyA8 [1]": {"tested_on": "HeyA8", "experiment": "Tumor cell proliferation (PCNA) in orthotopic HeyA8 tumors", "format": "in vivo, mice", "settings": "compared to controls", "protocol": "(§5) Analysis of tumor microvessel density (CD31) and proliferation (PCNA). Microvessel density analysis was performed by immunostaining for CD31 antigen in orthotopic tumors as previously described (Halder et al., 2006). Briefly, frozen slides were rehydrated in acetone, blocked for endogenous peroxidases with H2O2 in methanol, and incubated overnight at 4° C. with rat anti-mouse m-CD31 antibodies (1:800; BD Bioscience, Pharmingen, San Jose, Calif.). The following day, slides were incubated with appropriate secondary antibody and detected with DAB substrate. Proliferation was assessed by staining for PCNA on paraffin slides as previously reported (Halder et al., 2006). After deparaffinization and rehydration, slides were heated in microwave at 98° C. for 10 min in 0.1M citrate buffer (pH 6.0) for antigen retrieval, blocked for endogenous peroxidases, and then incubated with fragment blocker (1:10; Jackson Immunoresearch Lab., West Grove, Pa.) overnight at 4° C. to reduce murine antigen interference. Following day, slides were incubated with primary antibody (1:50; anti-PCNA, PC-10, mouse IgG, Dako, Carpinteria, Calif.) for 4 hours at RT, washed with PBS, and re-incubated for 1 hour at RT with appropriate secondary. Detection was performed with DAB substrate. Quantification of MVD and proliferation was performed as previously described (Halder et al., 2006)."}, "SKOV3ip1 [2]": {"tested_on": "SKOV3ip1", "experiment": "Tumor cell proliferation (PCNA) in orthotopic SKOV3ip1 tumors", "format": "in vivo, mice", "settings": "compared to controls", "protocol": "as §5"}, "HeyA8 [3]": {"tested_on": "HeyA8", "experiment": "IL-8 siRNA therapy in orthotopic murine ovarian cancer model, HeyA8", "format": "in vivo, mice", "source_text": "as §1, §2, §3, §4"}, "SKOV3ip1 [4]": {"tested_on": "SKOV3ip1", "experiment": "IL-8 siRNA therapy in orthotopic murine ovarian cancer model, SKOV3ip1", "format": "in vivo, mice", "source_text": "as §1, §2, §3, §4"}, "HeyA8 [5]": {"tested_on": "HeyA8", "experiment": "Tumor microvessel density (CD31) in orthotopic HeyA8 tumors", "format": "in vivo, mice", "settings": "CD31 staining", "protocol": "as §5"}, "SKOV3ip1 [6]": {"tested_on": "SKOV3ip1", "experiment": "Tumor microvessel density (CD31) in orthotopic SKOV3ip1 tumors", "format": "in vivo, mice", "settings": "CD31 staining", "protocol": "as §5"}, "MMP9": {"tested_on": "MMP9", "experiment": "MMP9 expression after IL-8 siRNA transfection in vitro", "format": "cell-based, human", "settings": "HeyA8 and SKOV3ip1 cell lines; following siRNA transfection in vitro"}, "IL-8 mRNA": {"tested_on": "IL-8 mRNA", "experiment": "IL-8 mRNA expression by RT-PCR after in vitro siRNA transfection", "format": "cell-based, human", "settings": "RT-PCR 36-48 hours after siRNA transfection, compared to control siRNA", "source_text": "as §1\nSiRNA and in vitro transfections. […]\nmRNA and protein IL-8 expression analysis for in vitro transfections. The expression of IL-8 in vitro was determined with RT-PCR and ELISA 36-48 hours after siRNA transfection. […] For ELISA, cells were treated with serum-free media day prior to analysis and IL-8 protein levels were quantified using a commercially available ELISA kit (R&D Systems, Minneapolis, Minn.). […]"}, "MMP2": {"tested_on": "MMP2", "experiment": "MMP2 expression after IL-8 siRNA transfection in vitro", "format": "cell-based, human", "settings": "HeyA8 and SKOV3ip1 cell lines; following siRNA transfection in vitro"}, "IL-8": {"tested_on": "IL-8", "experiment": "Secreted IL-8 protein by ELISA after in vitro siRNA transfection", "format": "cell-based, human", "settings": "for IL-8 protein levels reduced by: ELISA 36-48 hours after siRNA transfection", "source_text": "as §1\nSiRNA and in vitro transfections. IL-8 targeting siRNA purchased from Dharmacon (Lafayette, Colo.) was used to silence IL-8 expression in ovarian cancer cell lines (target sequence: GCCAAGGAGUGCUAAAGAA—SEQ ID NO:1). The sequence of the sense strand of the IL-8 siRNA is […] (SEQ ID NO:39) and the sequence of the antisense strand of the IL-8 siRNA is […] (SEQ ID NO:40). […] For in vitro transfections, 2×10^5 cells/well were plated into 6-well plates. The following day, cells were washed with PBS and incubated with 5 μg siRNA (IL-8 or control) with 30 μl of RNAiFect transfection reagent (Qiagen, Valencia, Calif.) in serum-containing media overnight at 37° C. Media was changed 24 hours after transfection and replaced with appropriate media.\nmRNA and protein IL-8 expression analysis for in vitro transfections. The expression of IL-8 in vitro was determined with RT-PCR and ELISA 36-48 hours after siRNA transfection. For RT-PCR analysis, RNA was isolated according to manufacturer's protocol (Ambion RNAqueous Kit, Ambion, Austin, Tex.), transcribed into cDNA, and amplified: 94° C.×2 min, 94° C.×30 sec, 61° C.×30 sec, 72° C. 2 min, repeated for 21 cycles, and 72° C.×7 min (Primers: IL-8 sense […] (SEQ ID NO:48); IL-8 anti-sense […] (SEQ ID NO:49); GAPDH sense GAGCCACATCGCTCAGAC (SEQ ID NO:50); GAPDH anti-sense CTTCTCATGGTTCACACCC (SEQ ID NO:51)). For ELISA, cells were treated with serum-free media day prior to analysis and IL-8 protein levels were quantified using a commercially available ELISA kit (R&D Systems, Minneapolis, Minn.). All experiments were performed in duplicate and control siRNA was used for comparison."}, "HeyA8 cell line": {"tested_on": "HeyA8 cell line", "experiment": "Tumor cell invasion in vitro", "format": "cell-based, human"}, "[7]": {"settings": "HeyA8 cells, media collected at various time points"}}, "note": "Where “and” joins values, the source holds several entries; their conditions need not be identical. Equal entries are not always repeated. Entries after “also recorded” stand apart in the source; their conditions may differ."}
{"compound": "CC(=O)O[C@@]12CO[C@@H]1C[C@H](O)[C@@]1(C)C(=O)[C@H](O)C3=C(C)[C@@H](OC(=O)[C@H](O)[C@@H](NC(=O)OC(C)(C)C)c4ccccc4)C[C@@](O)([C@@H](OC(=O)c4ccccc4)[C@H]21)C3(C)C", "note": "[docetaxel]", "values": [{"measurement": "tumor growth reduction (tumor weight)", "setting": "SKOV3ip2.TR; SKOV3ip2.TR taxane-resistant, compared to controls, docetaxel 35 μg", "value": 11, "unit": "%"}, {"measurement": "tumor cell proliferation, PCNA staining (in words)", "setting": "HeyA8 [1]", "value": "effective in reducing proliferation; also recorded: decreased tumor cell proliferation"}, {"measurement": "tumor cell proliferation, PCNA staining (in words)", "setting": "SKOV3ip1 [2]", "value": "effective in reducing proliferation; also recorded: decreased tumor cell proliferation"}, {"measurement": "tumor burden, average number of tumor nodules (in words)", "setting": "HeyA8 [3]; compared to controls", "value": "reduced tumor burden"}, {"measurement": "tumor burden, average number of tumor nodules (in words)", "setting": "SKOV3ip1 [4]; compared to controls", "value": "reduced tumor burden"}, {"measurement": "effect on MVD / tumor angiogenesis (in words)", "setting": "HeyA8 [5]", "value": "Minimal effects"}, {"measurement": "effect on MVD / tumor angiogenesis (in words)", "setting": "SKOV3ip1 [6]", "value": "Minimal effects"}]}
{"compound": "IL-8 siRNA: IL-8 targeting siRNA from Dharmacon; sense GCCAAGGAGUGCUAAAGAAUU (SEQ ID NO:39), antisense UUCUUUAGCACUCCUUGGCUU (SEQ ID NO:40) (incorporated into neutral DOPC liposomes, further chemistry not given here)", "values": [{"measurement": "No. nodules (mean ± SE)", "setting": "SKOV3ip2.TR; SKOV3ip2.TR", "value": "21.9 ± 3.4"}, {"measurement": "Tumor incidence (%)", "setting": "SKOV3ip2.TR; SKOV3ip2.TR", "value": 90, "unit": "%"}, {"measurement": "MMP9 expression", "setting": "MMP9", "value": "decreased"}, {"measurement": "IL-8 mRNA expression", "setting": "IL-8 mRNA; HeyA8", "value": "significantly reduced; also recorded: significantly decreased"}, {"measurement": "IL-8 mRNA expression", "setting": "IL-8 mRNA; SKOV3ip1", "value": "significantly reduced; also recorded: significantly decreased"}, {"measurement": "No. nodules (mean ± SE)", "setting": "HeyA8 [3]", "value": "3.4 ± 0.8"}, {"measurement": "Tumor incidence (%)", "setting": "HeyA8 [3]", "value": 100, "unit": "%"}, {"measurement": "No. nodules (mean ± SE)", "setting": "SKOV3ip1 [4]", "value": "21.0 ± 7.3"}, {"measurement": "Tumor incidence (%)", "setting": "SKOV3ip1 [4]", "value": 70, "unit": "%"}, {"measurement": "MMP2 expression", "setting": "MMP2", "value": "decreased"}, {"measurement": "IL-8 protein levels reduced by", "setting": "IL-8; HeyA8", "value": "79% and 80%"}, {"measurement": "IL-8 returning to baseline, time after transfection", "setting": "IL-8; [7]", "value": "≤ 96", "unit": "h"}, {"measurement": "Maximum down regulation of IL-8, time after transfection", "setting": "IL-8; [7]", "value": 48, "unit": "h"}, {"measurement": "IL-8 protein levels reduced by", "setting": "IL-8; SKOV3ip1", "value": "81% and 80%"}, {"measurement": "tumor cell invasion in vitro", "setting": "HeyA8 cell line", "value": "decreased tumor cell invasion"}]}
